The subject of the assay is Cells producing MAb A. Briefly: mock perfusion assay, glycan analysis. The note with it: for Man5 / Man6 / Man7 / Man8a / Man8b / Man9: day 10. It is filed as cell-based, Chinese hamster. As for the experimental part:
Mock perfusion assay is a small scale, plate-based assay that is designed to mimic perfusion conditions in bioreactors through daily medium exchanges. For a 10-day mock perfusion assay, passaging cultures of various production cell lines were diluted 1:5 into chemically defined base perfusion medium in a 24 deep-well plate at a final volume of 3 ml per well. Mock perfusion was initiated on day 3 when the cells were spun down at 1000 rpm for 5 minutes and 25% of each spent culture medium was exchanged with the equivalent volume of fresh perfusion media. Subsequent medium exchange percentages were 40% on days 4-8 and 50% on day 9. Exchanged supernatants were stored at 4° C. prior to analysis.
Analysis of cell culture parameters was also started on day 3; viable cell density and viability were analyzed using the ViaCount Guava assay as previously described. Glucose was measured daily starting on day 3 and was maintained at 12 g/l. Stored supernatants were analyzed for antibody titer as described previously. Samples of supernatant fluid from days 6, 8 and 10 were also analyzed for the presence and type of glycans by HILIC analysis.
The cell lines used included three production cell lines that are known to generate mAbs with low high mannose glycans (MAb A, MAb B and MAb C) and one production cell line that consistently produces product with high levels of high mannose glycans (MAb D). […] Equivalent volumes of methanol were added daily to control cultures (columns 1 and 2 of the 24-well plate). This scheme is depicted below:
Total high mannose values (Total HM column) and the corresponding distributions into high mannose species from Man5 through Man9 were determined for purified antibody samples collected on day 10. Each value shown in Table 4 represents an average of duplicates.

As to `CC[C@@]1([C@@H]2O[C@@H]([C@H]3O[C@@](O)(CO)[C@H](C)C[C@@H]3C)C[C@@H]2C)CC[C@H]([C@]2(C)CC[C@]3(C[C@H](O)[C@@H](C)[C@@H]([C@@H](C)[C@@H](OC)[C@H](C)C(=O)O)O3)O2)O1` [monensin], the “Total HM” value stood at 55.7% (constant monensin 25 nM from day 3, Day 6); 19.7% (constant monensin 25 nM from day 3, Day 8); 9% (constant monensin 25 nM from day 3, Day 10); 61.9% (increasing monensin (25 nM day 4, 50 nM days 5-9), Day 6); 44.9% (increasing monensin (25 nM day 4, 50 nM days 5-9), Day 8); 23.2% (increasing monensin (25 nM day 4, 50 nM days 5-9), Day 10). Also, the Man5 amounted to 5.6% (constant monensin 25 nM) and 14.2% (increasing monensin (to 50 nM)). Besides, the Man6 was found to be 1.2% (constant monensin 25 nM) and 3.7% (increasing monensin (to 50 nM)). Further, the Man7 is on record as 1.0% (constant monensin 25 nM) and 1.9% (increasing monensin (to 50 nM)). The Man8a (constant monensin 25 nM) was determined as 0.4% and the Man8a (increasing monensin (to 50 nM)) was determined as 0.6%. The Man8b was found to be 0.6% (constant monensin 25 nM) and 1.4% (increasing monensin (to 50 nM)). Also, the Man9 (constant monensin 25 nM) turned out to be 0.2% and the Man9 (increasing monensin (to 50 nM)) is recorded as 0.4%.

These data come from US11299760B2 (Amgen Inc., priority 2013, dated 2022).
